For 23 compounds, AC50 results are on record in patent US20230104936A1, “TRPML MODULATORS” (Casma Therapeutics, Inc., priority 2019, published 2023).

In this assay the test system is TFEB. As to the kind of experiment: TFEB nuclear translocation assay, HeLa wt cells. The assay is classed as cell-based. To be noted: Homo sapiens, HeLa, 2 h, 2 hrs compound treatment, Table 1 does not say HeLa wt or TRPML1 KO. Summed up:
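HeLa wt or TRPML1 KO cells treated 2 hrs with compounds at 37° C, fixed in 4% PFA, immunostained with anti-TFEB plus Alexa 488 secondary and Hoechst. Imaged at ×20, four fields/well; read-out is nuclear/perinuclear-ring TFEB intensity ratio, reported as AC50.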
As for `C[C@@H]1CN(CC2(C)CCN(c3c(F)cccc3NS(=O)(=O)c3ccc(S(=O)(=O)N(C)C)cc3)CC2)C[C@H](C)O1` [Compound A-781, N4-[2-(4-{[(2R,6S)-2,6-dimethylmorpholin-4-yl]methyl}-4-methylpiperidin-1-yl)-3-fluorophenyl]-N1,N1-dimethylbenzene-1,4-disulfonamide], the AC50 (usually the concentration at which the activity in the assay is half-maximal) is no more than 2000 nM.
Next, `CN(C)S(=O)(=O)c1ccc(S(=O)(=O)Nc2cccc(F)c2N2CCC(C)(C(F)F)CC2)cc1` [Compound A-830, N4-{2-[4-(difluoromethyl)-4-methylpiperidin-1-yl]-3-fluorophenyl}-N1,N1-dimethylbenzene-1,4-disulfonamide]: no more than 2000 nM; `COCC1(C)CCN(c2c(F)cccc2NS(=O)(=O)c2ccc(S(=O)(=O)N(C)C)cc2)CC1` [Compound A-681, N4-{3-fluoro-2-[4-(methoxymethyl)-4-methylpiperidin-1-yl]phenyl}-N1,N1-dimethylbenzene-1,4-disulfonamide]: no more than 2000 nM; `CN(C)S(=O)(=O)c1ccc(C(Nc2ccccc2N2CCC(c3ccc(Cl)cc3F)CC2)C(F)(F)F)cc1` (centres unmarked) [Compound A-170, 4-[1-({2-[4-(4-chloro-2-fluorophenyl)piperidin-1-yl]phenyl}amino)-2,2,2-trifluoroethyl]-N,N-dimethylbenzene-1-sulfonamide]: no more than 2000 nM.
Next, `CN(C)C1Cc2ccccc2C12CCN(c1ccccc1NS(=O)(=O)c1ccc(S(=O)(=O)N(C)C)cc1)CC2` (centres unmarked) [Compound A-370, N4-{2-[2-(dimethylamino)-2,3-dihydrospiro[indene-1,4′-piperidin]-1′-yl]phenyl}-N1,N1-dimethylbenzene-1,4-disulfonamide]: no more than 2000 nM; `CN(C)S(=O)(=O)c1ccc(S(=O)(=O)Nc2ccccc2N2CCC3(CC2)CN(Cc2ccccc2)c2cc(F)ccc23)cc1` [Compound A-304, N4-(2-{1-benzyl-6-fluoro-1,2-dihydrospiro[indole-3,4′-piperidin]-1′-yl}phenyl)-N1,N1-dimethylbenzene-1,4-disulfonamide]: no more than 2000 nM.
`O=S(=O)(Nc1ccccc1N1CCC(c2ccc(Cl)cc2F)CC1)c1ccc(C(O)C(F)(F)F)cc1` (centres unmarked) [Compound A-157, N-{2-[4-(4-chloro-2-fluorophenyl)piperidin-1-yl]phenyl}-4-(2,2,2-trifluoro-1-hydroxyethyl)benzene-1-sulfonamide]: the AC50 was no more than 2000 nM.
Turning to `COCC1(C)CCN(c2ccc(OC)cc2NS(=O)(=O)c2ccc3c(c2)CCC3)CC1` [Compound A-630, N-{5-methoxy-2-[4-(methoxymethyl)-4-methylpiperidin-1-yl]phenyl}-2,3-dihydro-1H-indene-5-sulfonamide], the half-maximal activity concentration (AC50) was no more than 2000 nM.
Next, `CN1CCC2(CCN(c3ccccc3NS(=O)(=O)c3ccc(S(=O)(=O)N(C)C)cc3)CC2)C1` [Compound A-293, N1,N1-dimethyl-N4-(2-{2-methyl-2,8-diazaspiro[4.5]decan-8-yl}phenyl)benzene-1,4-disulfonamide]: no less than 10000 nM.
Next, `CS(=O)(=O)c1ccc(S(=O)(=O)Nc2ccccc2N2CCC3(CC2)COCc2ccccc23)cc1` [Compound A-481, N-(2-{1,3-dihydrospiro[2-benzopyran-4,4′-piperidin]-1′-yl}phenyl)-4-methanesulfonylbenzene-1-sulfonamide]: no more than 2000 nM.
Next, `C[C@@H]1COC[C@H](C)N1C[C@H]1CCN(c2c(F)cccc2NS(=O)(=O)c2ccc(S(=O)(=O)N(C)C)cc2)C1` [Compound A-984]: no more than 2000 nM; `CCN1CCN(c2ccc(Cl)cc2NS(=O)(=O)c2ccc3c(c2)CCC3)CC1` [Compound A-289, N-[5-chloro-2-(4-ethylpiperazin-1-yl)phenyl]-2,3-dihydro-1H-indene-5-sulfonamide]: no less than 10000 nM; `CCOC(=O)CC1(F)CCN(c2ccccc2NS(=O)(=O)c2ccc(S(=O)(=O)N(C)C)cc2)CC1` [Compound A-703, ethyl 2-(1-{2-[4-(dimethylsulfamoyl)benzenesulfonamido]phenyl}-4-fluoropiperidin-4-yl)acetate]: no more than 2000 nM.
In the case of `O=S(=O)(Nc1cccc(N2CCC(c3ccc(Cl)cc3F)CC2)c1)c1ccc(F)cc1` [Compound A-128, N-{3-[4-(4-chloro-2-fluorophenyl)piperidin-1-yl]phenyl}-4-fluorobenzene-1-sulfonamide], the AC50 is no less than 10000 nM.
Next, `CN(C)S(=O)(=O)c1ccc(S(=O)(=O)Cc2ccccc2N2CCC(c3ccc(Cl)cc3F)CC2)cc1` [Compound A-214, 4-((2-(4-(4-chloro-2-fluorophenyl)piperidin-1-yl)benzyl)sulfonyl)-N,N-dimethylbenzenesulfonamide]: no more than 2000 nM; `COCC1(C)CCN(c2ccccc2NS(=O)(=O)c2ccc3c(c2)OC(C)(C)O3)CC1` [Compound A-721, N-{2-[4-(methoxymethyl)-4-methylpiperidin-1-yl]phenyl}-2,2-dimethyl-2H-1,3-benzodioxole-5-sulfonamide]: no more than 2000 nM.
Next, `CC(C1CCN(c2c(F)cccc2NS(=O)(=O)c2ccc(S(=O)(=O)N(C)C)cc2)CC1)N1C[C@@H](C)O[C@@H](C)C1` (stereo partly drawn) [Compound A-748, N4-[2-(4-{1-[(2R,6S)-2,6-dimethylmorpholin-4-yl]ethyl}piperidin-1-yl)-3-fluorophenyl]-N1,N1-dimethylbenzene-1,4-disulfonamide]: no more than 2000 nM.
Next, `Cc1ccc(S(=O)(=O)Nc2ccccc2N2CCC(c3ccc(Cl)cc3F)C2)cc1` (centres unmarked) [Compound A-102, N-{2-[3-(4-chloro-2-fluorophenyl)pyrrolidin-1-yl]phenyl}-4-methylbenzene-1-sulfonamide]: 2010 to 8000 nM; `CS(=O)(=O)c1ccc(S(=O)(=O)Nc2ccccc2N2CCC3(CC2)CN(CC2CCCO2)c2cc(F)ccc23)cc1` (centres unmarked) [Compound A-467, N-(2-{6-fluoro-1-[(oxolan-2-yl)methyl]-1,2-dihydrospiro[indole-3,4′-piperidin]-1′-yl}phenyl)-4-methanesulfonylbenzene-1-sulfonamide]: no more than 2000 nM; `COCC1(C)CCN(c2ccccc2NS(=O)(=O)c2ccc(C(=O)C(C)C)cc2)CC1` [Compound A-641, N-{2-[4-(methoxymethyl)-4-methylpiperidin-1-yl]phenyl}-4-(2-methylpropanoyl)benzene-1-sulfonamide]: 8010 to 9990 nM.
Compound `CC1(C)CC2(CCN(c3ccccc3NS(=O)(=O)c3ccc4c(c3)COCC4)CC2)CO1` [Compound A-715, N-(2-{3,3-dimethyl-2-oxa-8-azaspiro[4.5]decan-8-yl}phenyl)-3,4-dihydro-1H-2-benzopyran-7-sulfonamide] showed a half-maximal activity concentration (AC50) of no more than 2000 nM.
Next, `COC(=O)NC1(C)CCN(c2c(F)cccc2NS(=O)(=O)c2ccc(S(=O)(=O)N(C)C)cc2)CC1` [Compound A-825, methyl N-(1-{2-[4-(dimethylsulfamoyl)benzenesulfonamido]-6-fluorophenyl}-4-methylpiperidin-4-yl)carbamate]: no more than 2000 nM; `COCC1(C)CCN(c2ccccc2NS(=O)(=O)c2ccc(OC)cc2)CC1` [Compound A-538, 4-methoxy-N-{2-[4-(methoxymethyl)-4-methylpiperidin-1-yl]phenyl}benzene-1-sulfonamide]: no more than 2000 nM.
